Measurements from ChEMBL document CHEMBL1201862, “PubChem BioAssay data set” (2004).
Where “and” joins values, the source holds several entries; their conditions need not be identical. Equal entries are not always repeated.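 Following 48 hours of exposure in 96-well plates, responses at five concentrations were used to interpolate endpoints linearly. GI50 marks 50% less growth.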 Calls of active or inactive are those of the source. No stated cut-off is given here; in the data, active = GI50 up to about 1.1 µM and inactive = higher.

Legend:
Assay in all cases: DTP human tumour cell line panel, 48 h
[1] = test system: UACC-62
[2] = test system: ACHN
[3] = test system: LOX IMVI
[4] = test system: MCF7
[5] = test system: NCI-H23
[6] = test system: TK-10
[7] = test system: SN12C
[8] = test system: SF-268
[9] = test system: OVCAR-8
[10] = test system: HOP-62
[11] = test system: OVCAR-5
[12] = test system: T47D
[13] = test system: RPMI-8226
[14] = test system: UACC-257
[15] = test system: NCI-H460
[16] = test system: HL-60
[17] = test system: NCI-H226
[18] = test system: SK-MEL-2
[19] = test system: NCI/ADR-RES
[20] = test system: MDA-N

Measured: GI50

Cc1ccccc1C1CC(=O)CC(c2ccccc2C)C12C(=O)NC(=O)NC2=O (configuration not stated)
inactive: [1] > 100 µM | [2] > 100 µM | [3] > 100 µM | [4] > 73.6 µM | [5] > 100 µM | [6] > 100 µM | [7] 1.98 µM | [8] > 100 µM | [9] > 100 µM | [10] > 100 µM | [11] > 100 µM | [12] > 100 µM | [13] 26.9 µM | [14] > 100 µM | [15] > 88.5 µM | [16] 55 µM | [17] > 100 µM | [18] > 100 µM | [19] > 100 µM

CC(C)=C1C(=O)C[C@]2(C)C[C@H]3/C(=C(/C)CCC12)CC[C@@]3(C)O (some centres not stated)
inactive: [1] > 50 µM | [2] > 50 µM | [3] > 50 µM | [4] > 50 µM | [5] > 50 µM | [6] > 50 µM | [7] > 50 µM | [8] > 50 µM | [9] > 50 µM | [10] > 50 µM | [11] > 50 µM | [12] 46.9 µM | [13] > 50 µM | [14] > 50 µM | [16] 11.3 µM | [17] > 50 µM | [18] > 50 µM | [19] > 50 µM

Cc1cc(NS(=O)(=O)c2ccc(NO)cc2)no1
inactive: [1] 56.6 µM | [20] 20.7 µM | [2] > 100 µM | [3] 17.9 µM | [4] 22 µM | [6] > 100 µM | [7] 19.5 µM | [8] > 100 µM | [9] 41.1 µM | [10] > 100 µM | [11] > 100 µM | [14] > 100 µM | [15] > 100 µM | [16] > 100 µM | [17] > 100 µM | [18] > 100 µM | [19] 39.5 µM

Cc1cn(C2CC(N(O)Cc3ccccc3)C(CO[Si](C)(C)C(C)(C)C)O2)c(=O)[nH]c1=O (configuration not stated)
inactive: [1] 12.2 µM and 16.4 µM | [20] 18.9 µM and 17.4 µM | [2] 26.7 µM and 17.6 µM | [4] 19.6 µM and 30.9 µM | [5] 26.6 µM and 16.7 µM | [7] 16 µM and 16.1 µM | [9] 17.8 µM and 25.7 µM | [10] 19.5 µM and 16.3 µM | [11] 18.6 µM and 19.7 µM | [13] 30.6 µM | [14] 16.4 µM and 26.4 µM | [15] 17.9 µM and 17.7 µM | [16] 29.8 µM and 36.5 µM | [17] 18.6 µM and 18.8 µM | [18] 20.3 µM

COc1ccc(N2C(=O)C(C#N)=C(SC)C(C#N)C2=O)cc1 (configuration not stated)
inactive: [1] > 100 µM | [20] > 100 µM | [2] > 100 µM | [3] > 100 µM | [4] > 100 µM | [6] > 100 µM | [7] > 100 µM | [8] > 100 µM | [9] > 100 µM | [10] > 100 µM | [11] > 100 µM | [14] > 100 µM | [15] > 100 µM | [17] > 100 µM | [18] > 100 µM | [19] > 100 µM

Cc1ccc(-n2cc(-c3ccc(Cl)cc3)c3c(=N)n(N)cnc32)cc1
inactive: [1] 13.2 µM | [20] 11.5 µM | [2] 16.2 µM | [3] 14.7 µM | [4] 11 µM | [5] 16.1 µM | [6] 15.3 µM | [7] 16 µM | [8] 12.7 µM | [9] 14.8 µM | [10] 14.2 µM | [11] 14.7 µM | [14] 9.93 µM | [15] 10.3 µM | [16] 7.83 µM | [17] 21 µM | [18] 13.6 µM | [19] 13.1 µM

O=C1CCCn2c(nc3ccccc32)N1
inactive: [1] > 100 µM | [2] > 100 µM | [3] > 100 µM | [4] > 100 µM | [5] > 100 µM | [6] > 100 µM | [8] > 100 µM | [9] > 100 µM | [10] > 100 µM | [11] > 100 µM | [12] > 100 µM | [13] > 100 µM | [14] > 100 µM | [15] > 100 µM | [17] > 100 µM | [18] > 100 µM | [19] > 100 µM

CS(=O)(=O)c1ccc(C(=O)O[C@@H]2C(=O)N3CC[C@H]4OC(O)[C@@H]2[C@H]43)cc1 (some centres not stated)
inactive: [1] > 100 µM | [2] > 100 µM | [3] > 100 µM | [4] > 100 µM | [5] > 100 µM | [6] > 100 µM | [8] > 100 µM | [9] > 100 µM | [10] > 100 µM | [11] > 100 µM | [12] > 100 µM | [13] > 100 µM | [14] > 100 µM | [15] > 100 µM | [17] > 100 µM | [18] > 100 µM | [19] > 100 µM

O/N=C1/COC(C(F)(F)F)(C(F)(F)F)C1
inactive: [1] > 100 µM | [2] > 100 µM | [3] > 100 µM | [4] > 100 µM | [5] > 100 µM | [6] > 100 µM | [7] > 100 µM | [8] > 100 µM | [9] > 100 µM | [10] > 100 µM | [11] > 100 µM | [12] > 100 µM | [13] > 100 µM | [14] > 100 µM | [15] > 100 µM | [17] > 100 µM | [18] > 100 µM | [19] > 100 µM

CC1=C(C(=O)Nc2ccc([N+](=O)[O-])cc2)C(c2cccc([N+](=O)[O-])c2)C(C(=O)Nc2ccc([N+](=O)[O-])cc2)=C(C)N1
inactive: [1] 5.28 µM | [2] 20 µM | [3] 11.1 µM | [5] 13.3 µM | [6] 37.5 µM | [7] 30.5 µM | [8] 21.6 µM | [9] 17.8 µM | [10] 64.3 µM | [11] > 100 µM | [13] 7.78 µM | [14] 16 µM | [15] 27.7 µM | [16] 16.4 µM | [17] 58.3 µM | [18] 33.1 µM

C1=CC=C2NCCOCC/N=C3/C=CC=CC=C3NCCOCC/N=C\2C=C1
inactive: [1] 47.9 µM | [2] > 100 µM | [3] 29 µM | [5] > 100 µM | [6] > 100 µM | [7] 77.6 µM | [8] > 100 µM | [9] 57.4 µM | [10] > 100 µM | [11] > 100 µM | [13] 45.7 µM | [14] 20 µM | [15] 30.4 µM | [16] 22.4 µM | [17] > 100 µM | [18] 69 µM
